Test results: ChEMBL document CHEMBL1201862, “PubChem BioAssay data set” (2004)
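Results reflect a 48-hour exposure of cells in 96-well plates to compound at five concentrations. GI50 marks 50% less growth.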 Calls of active or inactive are those of the source. Rule as the data show it: active = GI50 up to about 1.1 µM and inactive = higher.

How the values were obtained:
Test in all cases: DTP human tumour cell line panel, 48 h
786-0 = system: 786-0
MOLT-4 = system: MOLT-4
Hs-578T = system: Hs-578T
DU-145 = system: DU-145
OVCAR-3 = system: OVCAR-3
ACHN = system: ACHN
HCT-15 = system: HCT-15
NCI-H226 = system: NCI-H226
HL-60 = system: HL-60
OVCAR-8 = system: OVCAR-8
SN12C = system: SN12C
SW-620 = system: SW-620
RPMI-8226 = system: RPMI-8226
HOP-62 = system: HOP-62
PC-3 = system: PC-3
HCC 2998 = system: HCC 2998
MCF7 = system: MCF7
SK-MEL-28 = system: SK-MEL-28
MDA-MB-435 = system: MDA-MB-435
SK-MEL-2 = system: SK-MEL-2

Row | SMILES | GI50 (786-0) | GI50 (MOLT-4) | GI50 (Hs-578T) | GI50 (DU-145) | GI50 (OVCAR-3) | GI50 (ACHN) | GI50 (HCT-15) [µM] | GI50 (NCI-H226) | GI50 (HL-60) | GI50 (OVCAR-8) | GI50 (SN12C) | GI50 (SW-620) | GI50 (RPMI-8226) | GI50 (HOP-62) | GI50 (PC-3) | GI50 (HCC 2998) | GI50 (MCF7) | GI50 (SK-MEL-28) | GI50 (MDA-MB-435) | GI50 (SK-MEL-2)
1 | CC(=O)O[C@H]1C(=O)[C@@]2(C)[C@H]([C@H](OC(=O)C3CCCCC3)[C@]3(O)C[C@H](OC(=O)[C@H](O)[C@@H](NC(=O)C4CCCCC4)C4CCCCC4)C(C)=C1C3(C)C)[C@]1(OC(C)=O)CO[C@@H]1C[C@@H]2O | 0.0171 µM (active) | 0.0151 µM (active) | 0.00962 µM (active) | 0.151 µM (active) | 0.00386 µM (active) | 0.168 µM (active) | 0.143 | 0.0311 µM (active) | 0.00586 µM (active) | 0.0228 µM (active) | 0.0942 µM (active) | 0.01 µM (active) | 0.0025 µM (active) | 0.0222 µM (active) | 0.016 µM (active) | 0.0442 µM (active) | 0.00569 µM (active) | 0.479 µM (active) | 0.00256 µM (active) | –
2 | Cc1cn(Cc2ccccc2CCl)c(=O)[nH]c1=O | 14.2 µM (inactive) | 3.15 µM (inactive) | 14.2 µM (inactive) | 13.1 µM (inactive) | 4.24 µM (inactive) | 12.6 µM (inactive) | 14.8 | – | 3.08 µM (inactive) | 12.1 µM (inactive) | 12.6 µM (inactive) | 8.15 µM (inactive) | – | 15.6 µM (inactive) | 16 µM (inactive) | 15.3 µM (inactive) | 4.84 µM (inactive) | 19.4 µM (inactive) | 11.5 µM (inactive) | 14.3 µM (inactive)
3 | CCOC(=O)C1=C(C)NC(=O)NC1c1coc2cc(C)cc(C)c2c1=O (stereo not given) | 67.9 µM (inactive) | 27.5 µM (inactive) | 56.2 µM (inactive) | > 100 µM (inactive) | 24.5 µM (inactive) | > 81.3 µM (inactive) | 25 | > 100 µM (inactive) | > 54.5 µM (inactive) | 64.1 µM (inactive) | 58.2 µM (inactive) | 32.1 µM (inactive) | 41.7 µM (inactive) | 36.8 µM (inactive) | 48.3 µM (inactive) | – | 36.2 µM (inactive) | > 100 µM (inactive) | 4.5 µM (inactive) | > 43.8 µM (inactive)
4 | CC(C)CCC1(CCN)C(=O)NC(=O)NC1=O | > 100 µM (inactive) | 16.2 µM (inactive) | > 100 µM (inactive) | > 100 µM (inactive) | > 100 µM (inactive) | > 100 µM (inactive) | > 100 | > 100 µM (inactive) | 38.2 µM (inactive) | > 100 µM (inactive) | > 100 µM (inactive) | > 100 µM (inactive) | > 100 µM (inactive) | > 100 µM (inactive) | > 100 µM (inactive) | – | > 100 µM (inactive) | > 100 µM (inactive) | > 100 µM (inactive) | > 100 µM (inactive)
5 | Cc1cc(C)c(S(=O)(=O)N2CCCN(S(=O)(=O)c3c(C)cc(C)cc3C)OCCCO2)c(C)c1 | > 100 µM (inactive) | > 100 µM (inactive) | > 100 µM (inactive) | > 100 µM (inactive) | > 100 µM (inactive) | > 100 µM (inactive) | > 100 | > 100 µM (inactive) | > 100 µM (inactive) | > 100 µM (inactive) | > 100 µM (inactive) | > 100 µM (inactive) | – | > 100 µM (inactive) | 89.3 µM (inactive) | – | > 100 µM (inactive) | > 100 µM (inactive) | > 100 µM (inactive) | > 100 µM (inactive)
6 | COc1ccc(C[N+]23C(CC[C@H]2c2ccccc2)CC[C@H]3c2ccccc2)cc1 (stereo not given in full) | 39.4 µM (inactive) | 21.6 µM (inactive) | 27.7 µM (inactive) | 23.8 µM (inactive) | 6.04 µM (inactive) | 67.6 µM (inactive) | – | 14.1 µM (inactive) | 4.06 µM (inactive) | 22.9 µM (inactive) | 36.9 µM (inactive) | 28.2 µM (inactive) | 2.8 µM (inactive) | 21 µM (inactive) | 20 µM (inactive) | – | 14.7 µM (inactive) | 20.3 µM (inactive) | 9.84 µM (inactive) | 18.5 µM (inactive)
7 | Cn1cc(NC(=O)Nc2cc(C(=O)Nc3cc(C(=O)Nc4cc(S(=O)(=O)O)c5cc(S(=O)(=O)O)cc(S(=O)(=O)O)c5c4)n(C)c3)n(C)c2)cc1C(=O)Nc1cc(C(=O)Nc2cc(S(=O)(=O)O)c3cc(S(=O)(=O)O)cc(S(=O)(=O)O)c3c2)n(C)c1 | > 100 µM (inactive) | > 100 µM (inactive) | > 100 µM (inactive) | > 100 µM (inactive) | > 100 µM (inactive) | > 100 µM (inactive) | > 100 | > 100 µM (inactive) | > 100 µM (inactive) | > 100 µM (inactive) | > 100 µM (inactive) | > 100 µM (inactive) | > 100 µM (inactive) | > 100 µM (inactive) | > 100 µM (inactive) | > 100 µM (inactive) | > 100 µM (inactive) | > 100 µM (inactive) | > 100 µM (inactive) | –
8 | CCOP(=O)(OCC)/C(C#N)=C/c1ccnc2ccccc12 | 20.4 µM (inactive) | > 100 µM (inactive) | 23.7 µM (inactive) | 34.8 µM (inactive) | 20.3 µM (inactive) | 43.6 µM (inactive) | 21.3 | 24.8 µM (inactive) | – | 15 µM (inactive) | 28.6 µM (inactive) | 27.3 µM (inactive) | 44.7 µM (inactive) | 40.8 µM (inactive) | 17.6 µM (inactive) | > 100 µM (inactive) | 18.8 µM (inactive) | 34.6 µM (inactive) | 16.4 µM (inactive) | 25 µM (inactive)
9 | COc1c(C)c(C/C=C(\C)CCCCO[Si](C(C)C)(C(C)C)C(C)C)c(OC)c2ccccc12 | > 100 µM (inactive) | 47.6 µM (inactive) | > 100 µM (inactive) | > 100 µM (inactive) | > 100 µM (inactive) | > 100 µM (inactive) | > 100 | – | – | > 100 µM (inactive) | > 100 µM (inactive) | > 100 µM (inactive) | – | > 100 µM (inactive) | > 100 µM (inactive) | > 10 µM (inactive) | > 100 µM (inactive) | – | > 100 µM (inactive) | > 100 µM (inactive)
10 | O=[N+]([O-])c1ccc(/C(=N/c2ccccc2)SS/C(=N\c2ccccc2)c2ccc([N+](=O)[O-])o2)o1 | 1.4 µM (inactive) | 2.51 µM (inactive) | 2.32 µM (inactive) | 1.69 µM (inactive) | 1.53 µM (inactive) | 1.91 µM (inactive) | 0.552 | 18.7 µM (inactive) | 2.09 µM (inactive) | 1.52 µM (inactive) | 1.94 µM (inactive) | 0.425 µM (active) | – | 2.17 µM (inactive) | 1.7 µM (inactive) | 1.59 µM (inactive) | 0.444 µM (active) | 2.4 µM (inactive) | 2.1 µM (inactive) | 2.51 µM (inactive)
11 | CC(C)(C)OC(=O)Cn1ncn(NC(=O)Cc2ccccc2)c1=S | > 10 µM (inactive) | > 10 µM (inactive) | > 10 µM (inactive) | > 10 µM (inactive) | > 10 µM (inactive) | > 10 µM (inactive) | > 10 | – | – | > 10 µM (inactive) | > 10 µM (inactive) | > 10 µM (inactive) | – | > 10 µM (inactive) | > 10 µM (inactive) | > 10 µM (inactive) | > 10 µM (inactive) | > 10 µM (inactive) | > 10 µM (inactive) | –
12 | COc1ccc(C2NC(=O)Nc3c2c(=O)oc2c3ccc3ccccc32)cc1 (stereo not given) | 67 µM (inactive) | 62.8 µM (inactive) | 41.4 µM (inactive) | > 100 µM (inactive) | 92.9 µM (inactive) | 51.6 µM (inactive) | 46.1 | 23.4 µM (inactive) | 70.8 µM (inactive) | 66.8 µM (inactive) | 68.7 µM (inactive) | > 100 µM (inactive) | 43.3 µM (inactive) | 61.4 µM (inactive) | 38.2 µM (inactive) | – | 66.2 µM (inactive) | 55.5 µM (inactive) | 56.5 µM (inactive) | 26.4 µM (inactive)
13 | COc1ccc2c(c1)-c1c(c3cc(OC)ccc3n1CCN(C)C)CC2 | 10.8 µM (inactive) | 10.7 µM (inactive) | 13.7 µM (inactive) | 13.7 µM (inactive) | 14.3 µM (inactive) | 15.1 µM (inactive) | 13.6 | 13.4 µM (inactive) | – | 17.4 µM (inactive) | 12.9 µM (inactive) | 15.2 µM (inactive) | 12.1 µM (inactive) | 15.8 µM (inactive) | 12.6 µM (inactive) | 7.48 µM (inactive) | 14.4 µM (inactive) | 15.9 µM (inactive) | 12.6 µM (inactive) | 14.5 µM (inactive)
14 | CC1(C)C(CC(=O)O)CCCC1CC(=O)O (stereo not given) | > 100 µM (inactive) | > 100 µM (inactive) | > 100 µM (inactive) | > 100 µM (inactive) | > 100 µM (inactive) | > 100 µM (inactive) | > 100 | 55.5 µM (inactive) | – | > 100 µM (inactive) | > 100 µM (inactive) | > 100 µM (inactive) | > 100 µM (inactive) | > 100 µM (inactive) | > 100 µM (inactive) | – | > 100 µM (inactive) | > 100 µM (inactive) | > 100 µM (inactive) | > 100 µM (inactive)
15 | O=C(O)CNc1ccc2c(c1)Cc1cc(Br)ccc1-2 | 39.6 µM (inactive) | 0.746 µM (active) | 4.65 µM (inactive) | 25.9 µM (inactive) | 28.5 µM (inactive) | 33.1 µM (inactive) | 31.1 | 21.2 µM (inactive) | 23.4 µM (inactive) | 23.9 µM (inactive) | 22.7 µM (inactive) | 24.2 µM (inactive) | 19.9 µM (inactive) | > 44.6 µM (inactive) | 27.2 µM (inactive) | – | > 38.4 µM (inactive) | 31.3 µM (inactive) | 15.3 µM (inactive) | 26 µM (inactive)
